How the values were obtained:
Echinochloa crus-galli [1] = experiment: Herbicidal activity against Echinochloa crus-galli (barnyard grass) assessed as inhibition of root length after 5 days at 25 degC; assay type: functional, organism-based; details: 120 h
Oryza sativa = experiment: Phytotoxicity against Oryza sativa (rice) assessed as inhibition of root length after 7 days at 25 degC; assay type: organism-based; details: 168 h
[2] = Phytotoxicity against Oryza sativa (rice) assessed as inhibition of root length at 64 uM after 7 days at 25 degC; assay type: organism-based; details: whole organism (rice plants, root growth)
Echinochloa crus-galli [3] = experiment: Herbicidal activity against Echinochloa crus-galli (barnyard grass) assessed as inhibition of root length at 64 uM after 5 days at 25 degC; assay type: functional; details: 120 h

| SMILES | IC50 (Echinochloa crus-galli [1]) [µM] | IC50 (Oryza sativa) [µM] | inhibition at 168 h, 64 µM [2] [%] | inhibition at 64 µM (Echinochloa crus-galli [3]) [%] |
| --- | --- | --- | --- | --- |
| COc1ccc2c(c1)N(O)C(=O)CO2 [6-MeO-D-DIBOA] | 159 | – | – | – |
| O=C1COc2c(Cl)cc(Cl)cc2N1O [6,8-diCl-D-DIBOA] | 281 | 3320 | – | – |
| O=C1COc2ccccc2N1O | 360 | – | – | – |
| O=C1COc2c(Cl)cccc2N1O [8-Cl-D-DIBOA] | 44 | 501 | 10 | 60 |
| O=C1COc2ccc(F)cc2N1O [6-F-D-DIBOA] | 2.8 | 9 | – | – |
| COc1ccc2c(c1OC)OCC(=O)N2O [7,8-diMeO-D-DIBOA] | 690 | – | – | – |
| COC(=O)c1ccc2c(c1)OCC(=O)N2O [7-MeOCO-D-DIBOA] | 1640 | – | – | – |
| CCC(=O)Nc1ccc(Cl)c(Cl)c1 [PROPANIL] | – | 213 | – | – |
| O=C1COc2ccc(Cl)cc2N1O [6-Cl-D-DIBOA] | 8 | 3 | – | – |
| O=C1COc2cc(F)ccc2N1O [7-F-D-DIBOA] | 130 | 171 | – | – |
| O=C1COc2ccc(C(F)(F)F)cc2N1O [6-CF3-D-DIBOA] | 160 | 264 | – | – |
| O=C1COc2c(F)cccc2N1O [8-F-D-DIBOA] | 69 | 185 | – | – |
| O=C1COc2c(ccc(F)c2F)N1O [7,8-diF-D-DIBOA] | 52 | 159 | – | – |
| COC(=O)c1ccc2c(c1)N(O)C(=O)CO2 [6-MeOCO-D-DIBOA] | 229 | – | – | – |
| COc1ccc2c(c1)OCC(=O)N2O | 819 | – | – | – |

From ChEMBL document CHEMBL3045267, “Aromatic-ring-functionalised benzoxazinones in the system Oryza sativa-Echinochloa crus-galli as biorational herbicide models” (Pest Manag Sci, 2009)
